Drawing on patent US5663139A, “Inhibitors of retroviral proteases” (Hoechst Aktiengesellschaft, priority 1992, dated 1997), this text covers IC50 for five molecules.

Counter-ions that a name gives are not always drawn.

The target of this test is T1, HIV protease (Human immunodeficiency virus type 1 group M subtype B, UniProt P04585).
T1 construct: The HIV protease is composed of 99 amino acids and evidently excises itself out of the pol polyprotein
The experiment in a line: HIV protease enzyme test (HPLC cleavage of heptapeptide substrate H-Ser-Phe-Asn-Phe-Opr-Gln-Ile-OH). The format is biochemical. The settings on record: inhibitor concentration at which the cleavage rate is halved, 37° C., 2 hours. An excerpt: In particular, they inhibit HIV protease. Their enzyme-inhibitory effect, which is in the milli- to subnano-molar range, can be determined as follows.
The substrates of the HIV protease which have been employed thus far include the heptapeptide: H-Ser-Phe-Asn-Phe-Pro-Gln-Ile-OH (SEQ ID NO. 1) (P. L. Darke et al., Biophys. Res. Commun. 156 (1988) 297-303). When this peptide is used as the substrate, the HIV protease cleaves it between the second Phe and the Pro.
General instructions for testing inhibitors of the HIV proteases:
2 mg of H-Ser-Phe-Asn-Phe-Opr-Gln-Ile-OH (H-Opr-OH=5-oxaproline) (SEQ ID NO. 1) are dissolved in 1 ml of MGTE 15 buffer (use of ultrasonication if required) and this solution is subsequently filtered through a sterilizing filter (0.45 μm).
2.5 times the necessary quantity of inhibitor to give the desired molarity per ml of solution is weighed out and dissolved in DMSO (10% of the final volume). This solution is diluted with MGTE 15 buffer to the final volume and then filtered through a sterilizing filter (0.45 μm).
5 μl of the HIV protease solution are diluted with MGTE25 buffer as required.
In each case, 10 μl of the substrate solution are pipetted into a test tube (16×100) having a screw cap. 10 μl of MGTE 15 buffer, which contains 10% DMSO, are pipetted in for the blank experiment. 10 μl of the inihibitor solutions are added to each of the remaining test tubes. The tubes are incubated at 37° C. for 5-10 minutes and 5 μl of the protease solution are then added to each sample. Following reaction at 37° C. for 2 hours, 10 or 20 μl (depending on the sensitivity of the HPLC equipment) are pipetted out from each sample, added to microvials and diluted with 120 μl of the HPLC eluant.
e) Conditions for the HPLC Analysis
Under the conditions chosen for this experiment, the heptapeptide is separated from the N-terminal tetrapeptide resulting from the enzymic cleavage. The % content of tetrapeptide peak related to the sum of tetrapeptide+heptapeptide gives the cleavage rate. The following IC50 values indicate the inhibitor concentrations at which the cleavage rate is halved: […]
For the molecule `CCOP(=O)(C(Cc1ccccc1)NC(=O)[C@@H](NC(=O)[C@@H](N)Cc1cccc2ccccc12)C(C)C)C(O)C(Cc1ccccc1)NC(=O)[C@@H](NC(=O)[C@@H](N)Cc1cccc2ccccc12)C(C)C` (stereo partly drawn) [Example 7, Ethyl 1-{2-[(L-naphthylalanyl-L-valyl)amino]-1-hydroxy-3-phenylpropyl},1-{1-[(L-naphthylalanyl-L-valyl)amino]-2-phenylethyl}phosphinate bistrifluoroacetate], the concentration for half-maximal inhibition (IC50) amounted to 15 nM. This counts as double-digit nanomolar. On to `CC(C)[C@H](NC(=O)[C@@H](N)Cc1cccc2ccccc12)C(=O)NC(Cc1ccccc1)C(O)P(=O)(O)C(Cc1ccccc1)NC(=O)[C@@H](NC(=O)[C@@H](N)Cc1cccc2ccccc12)C(C)C` (stereo partly drawn) [Example 8, 1-{2-[(L-Naphthylalanyl-L-valyl)amino]-1-hydroxy-3-phenylpropyl},1-{1-[(L-naphthylalanyl-L-valyl)amino]-2-phenylethyl}phosphinic acid dihydrobromide], for which the IC50 amounted to 0.5 nM. This IC50 lies about 30-fold lower than the previous one. In the case of `CC(C)[C@H](NC(=O)OCc1ccccc1)C(=O)NC(Cc1ccccc1)C(O)P(=O)(O)C(Cc1ccccc1)NC(=O)[C@@H](NC(=O)OCc1ccccc1)C(C)C` (stereo partly drawn) [Example 4, 1-{2-[(Benzyloxycarbonyl-L-valyl)amino]-1-hydroxy-3-phenylpropyl},1-{-[(benzyloxycarbonyl-L-valyl)amino]-2-phenylethyl}phosphinic acid] it was 1.3 nM; in that of `CCOP(=O)(C(Cc1ccccc1)NC(=O)[C@@H](NC(=O)OCc1ccccc1)C(C)C)C(O)C(Cc1ccccc1)NC(=O)[C@@H](NC(=O)OCc1ccccc1)C(C)C` (some centres unmarked) [Example 3], 70 nM.

In turn, `CC(C)[C@H](NC(=O)C(Cc1cccc2ccccc12)CS(=O)(=O)C(C)(C)C)C(=O)NC(Cc1ccccc1)C(O)P(=O)(O)C(Cc1ccccc1)NC(=O)[C@@H](NC(=O)C(Cc1cccc2ccccc12)CS(=O)(=O)C(C)(C)C)C(C)C` (stereo partly drawn) [Example 10, 1-{2-[((2S(tert-Butylsulfonylmethyl)-3-(1-naphthyl)-propionyl)-L-valyl)amino]-1-hydroxy-3-phenylpropyl},1-{1-[((2S(tert-butylsulfonylmethyl)-3-(1-naphthyl)propionyl)-L-valyl)amino]-2-phenylethyl}phosphinic acid] came in with a half-inhibitory concentration (IC50) of 4.2 nM. Against the preceding molecule, the IC50 is about 17-fold lower.

For orientation: IC50 means the concentration needed to halve the response being measured. A lower IC50 goes with greater potency in that assay.
